Assay results reported in patent publication US4960788A, “Pyrrolidone-2 compounds and their use for central analgesic activity” (priority 1988, dated 1990).
Like-named read-outs stand apart in the source and are kept apart here.

Key:
[1] = Jumping test on mouse (capacity to induce physical dependence); format: in vivo; conditions: Naloxone 10 mg/kg i.p. 4 hours after last administration, 15 minutes
Description: The compounds object of the present invention were tested in vivo in order to evaluate the capacity to induce physical dependence. The Jumping test described by Sealens et al. [Committee on Problems of Drug Dependence, vol. 2, (1971), page 1310] was used.
After 4 hours from the last administration, the animals were treated with Naloxone (10 mg/kg i.p.) and the number of jumps taken by the animals during the period of 15 minutes after the administration of Naloxone was counted.
In table 4, for exemplifying purposes, the percentage of jumping animals obtained for a compound of formula I is reported.

[2] = biological target: T1, opioid receptors (Rattus norvegicus, UniProt P33535); assay: competition for binding of [^3 H]-dihydromorphine (DHM) to opioid receptors in rat-brain homogenate; design: species or system rat (Sprague-Dawley); conditions: 1 nM ^3 H-DHM; 25° C., 30 minutes; read-out: IC50 for specific binding of ^3 H-DHM to rat-brain homogenate
T1 construct: opioid receptors in rat-brain homogenate; from tissue; host or cells: rat brain (Sprague-Dawley) without cerebellum, homogenate / crude membrane pellet
Description: (1) Evaluation of the competition for binding of [^3 H]-dihydromorphine(DHM) to opioid receptors in rat-brain homogenate
The experiments were carried out according to the method described by Simon et al. [Proc. Nat. Acad. Sci. U.S.A., 70, pp. 1947-1949, (1973)].
Sprague-Dawley rats weighing about 150 g were used.
The animals were decapitated and, after removal of cerebellum, the brains were homogenized in […] Tris-HCl buffer (pH 7.4) containing 0.32M saccharose. The homogenate was centrifugated at 1000 rpm for 10 minutes and the supranatant was centrifugated again at 20000 rpm for 20 minutes.
The obtained pellet was suspended in a homogenization buffer without saccharose up to a protein concentration of 2 mg/ml. The incubating system consisted in: 500 μl of homogenate (1 mg of proteins), 390 μl of 50 mM Tris-HCl buffer (pH 7.4), 100 μl of a solution at different concentrations of the compounds of formula I or of 10 μM Naloxone for the determination of the aspecific binding and 10 μl of ^3 H-DHM (specific activity […], 1 nM final concentration). The mixture was incubated at 25° C. for 30 minutes after the addition of the radioactive binder.
Then, the samples were filtered through Whatman GF/B filters, washed twice with 3 ml volumes of buffer and dried in oven at 70° C. Filters were put in scintillation vials with 15 ml of Filter Count (Packard) scintillation cocktail and the radioactivity was evaluated by a Packard Tricarb 4530 scintillation counter with 60% efficiency.
The activity was expressed as inhibiting concentration (IC50) 50% of the binding of ^3 H-DHM.

[3] = hot plate test on mouse (central analgesic activity); format: in vivo
Description: The compounds object of the present invention were tested in vivo in order to evaluate the central analgesic activity.
The hot plate test was carried out on mouse according to the method described by Eddy et al. (J. Pharmacol., 98, 121, 1950). The compounds were administered by systemic route (oral and subcutaneous). The analgesic activity was expressed as 50% effective dose (ED50).
In table 3 the results obtained for some representative compounds of formula I are reported.

[4] = test system: guinea-pig isolated ileum; assay: morphine-like activity on guinea-pig isolated ileum (inhibition of electrically induced contractions); format: cell-based; conditions: inhibition of 50% of contraction, electric stimulation 0.1 Hz-0.5 msec.
Description: The experiments were carried out according to the method described by Goldstein and Schultz (Br. J. Pharmacol., 48, 655, 1975) which is based on the capacity of the molecules showing an agonist activity on opioid receptors to inhibit the contractions of smooth muscles of guinea-pig ileum induced by electric stimulation (0.1 Hz-0.5 msec.).
The pharmacological activity was expressed as the necessary concentration (mM) to inhibit 50% of contraction (IC50).

[5] = oral, mouse hot plate test, read-out: Analgesic activity ED50 (C.L. 95%), os
[6] = sc, subcutaneous, mouse hot plate test, read-out: Analgesic activity ED50 (C.L. 95%), s.c.

T1 sequence (P33535 whole entry): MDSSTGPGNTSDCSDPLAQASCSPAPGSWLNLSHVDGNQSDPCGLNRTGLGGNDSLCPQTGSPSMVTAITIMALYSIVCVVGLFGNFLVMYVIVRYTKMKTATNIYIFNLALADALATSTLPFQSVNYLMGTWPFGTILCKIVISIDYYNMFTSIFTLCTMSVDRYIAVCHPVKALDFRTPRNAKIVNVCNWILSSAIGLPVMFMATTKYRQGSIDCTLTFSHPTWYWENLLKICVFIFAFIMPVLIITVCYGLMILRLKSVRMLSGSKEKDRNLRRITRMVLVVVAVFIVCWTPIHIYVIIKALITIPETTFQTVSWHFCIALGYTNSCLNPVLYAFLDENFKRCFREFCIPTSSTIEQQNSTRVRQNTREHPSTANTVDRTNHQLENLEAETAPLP

Row | SMILES | ED50 [3, 6] | IC50 ([4]; Cavia porcellus) | also measured
1 | CC[C@@H](C)N(C[C@H](O)[C@@H]1CCC(=O)N1Cc1ccccc1Cl)[C@H](C)CC [Compound 1, (1S)-1-[(5S)-1-[(2-chlorophenyl)methyl]-2-oxo-5-pyrrolidinyl]-2-[(2R,2'R)-disec.butylamino]ethanol] | 0.011 mg/kg | 0.03 nM | Percentage of jumping animals (total dose 3.8 mg/kg i.p.) ([1]; total dose 3.8 mg/kg i.p.): 5%; IC50 [2]: 0.9 nM; ED50 [3, 5]: 2.6 mg/kg
2 | CC[C@@H](C)N(C[C@H](O)[C@H]1CCC(=O)N1Cc1ccccc1Cl)[C@H](C)CC [Compound 3, (1S)-1-[(5R)-1-[(2-chlorophenyl)methyl]-2-oxo-5-pyrrolidinyl]-2-[(2R,2'R)-disec.butylamino]ethanol] |  | 4.6 nM | 
3 | CC[C@@H](C)N(C[C@@H](O)[C@H]1CCC(=O)N1Cc1ccccc1Cl)[C@H](C)CC [Compound 4, (1R)-1-[(5R)-1-[(2-chlorophenyl)methyl]-2-oxo-5-pyrrolidinyl]-2-[(2R,2'R)-disec.butylamino]ethanol] | 3.8 mg/kg | 8.7 nM | 
4 | CC[C@H](C)N(C[C@@H](O)[C@@H]1CCC(=O)N1Cc1ccccc1Cl)[C@@H](C)CC [Compound 5, (1R)-1-[(5S)-1-[(2-chlorophenyl)methyl]-2-oxo-5-pyrrolidinyl]-2-[(2S,2'S)-disec.butylamino]ethanol] |  | 50 nM | 
5 | CC[C@@H](C)N(C[C@@H](O)[C@@H]1CCC(=O)N1Cc1ccccc1Cl)[C@@H](C)CC [Compound 7, (1R)-1-[(5S)-1-[(2-chlorophenyl)methyl]-2-oxo-5-pyrrolidinyl]-2-[(2R,2'S)-disec.butylamino]ethanol] |  | 70 nM | 
6 | CC[C@@H](C)N(C[C@H](O)[C@@H]1CCC(=O)N1Cc1ccccc1Cl)[C@@H](C)CC [Compound 8, (1S)-1-[(5S)-1-[(2-chlorophenyl)methyl]-2-oxo-5-pyrrolidinyl]-2-[(2R,2'S)-disec.butylamino]ethanol] | 1.4 mg/kg | 44 nM | 
7 | CC[C@@H](C)N(C[C@@H](O)[C@H]1CCC(=O)N1Cc1ccccc1Cl)[C@@H](C)CC [Compound 12, (1R)-1-[(5R)-1-[(2-chlorophenyl)methyl]-2-oxo-5-pyrrolidinyl]-2-[(2R,2'S)-disec.butylamino]ethanol] |  | 83 nM | 
8 | CC[C@@H](C)N(C[C@H](O)[C@@H]1CCC(=O)N1Cc1ccccc1)[C@H](C)CC [Compound 14, (1S)-1-[(5S)-2-oxo-1-(phenylmethyl)-5-pyrrolidinyl]-2-[(2R,2'R)-disec.butylamino]ethanol] | 0.04 mg/kg | 0.43 nM | IC50 [2]: 3.3 nM; ED50 [3, 5]: 6.5 mg/kg
9 | CC[C@@H](C)N(C[C@@H](O)[C@@H]1CCC(=O)N1Cc1ccccc1F)[C@H](C)CC [Compound 15, (1R)-1-[(5S)-1-[(2-fluorophenyl)methyl]-2-oxo-5-pyrrolidinyl]-2-[(2R,2'R)-disec.butylamino]ethanol] |  | 40 nM | 
10 | CC[C@@H](C)N(C[C@H](O)[C@@H]1CCC(=O)N1Cc1ccccc1F)[C@H](C)CC [Compound 16, (1S)-1-[(5S)-1-[(2-fluorophenyl)methyl]-2-oxo-5-pyrrolidinyl]-2-[(2R,2'R)-disec.butylamino]ethanol] | 0.03 mg/kg | 0.29 nM | IC50 [2]: 2.5 nM; ED50 [3, 5]: 5.8 mg/kg
11 | CC[C@@H](C)N(C[C@H](O)[C@@H]1CCC(=O)N1Cc1cccc(OC)c1)[C@H](C)CC [Compound 18, (1S)-1-[(5S)-1-[(3-methoxyphenyl)methyl]-2-oxo-5-pyrrolidinyl]-2-[(2R,2'R)-disec.butylamino]ethanol] | 0.07 mg/kg | 0.28 nM | 
12 | CC[C@@H](C)N(C[C@@H](O)[C@@H]1CCC(=O)N1Cc1ccc(Cl)c(Cl)c1)[C@H](C)CC [Compound 19, (1R)-1-[(5S)-1-[(3,4-dichlorophenyl)methyl]-2-oxo-5-pyrrolidinyl]-2-[(2R,2'R)-disec.butylamino]ethanol] |  | 0.77 nM | 
13 | CC[C@@H](C)N(C[C@H](O)[C@@H]1CCC(=O)N1Cc1ccc(Cl)c(Cl)c1)[C@H](C)CC [Compound 20, (1S)-1-[(5S)-1-[(3,4-dichlorophenyl)methyl]-2-oxo-5-pyrrolidinyl]-2-[(2R,2'R)-disec.butylamino]ethanol] | 0.28 mg/kg | 0.23 nM | 
14 | CC[C@@H](C)N(C[C@H](O)[C@@H]1CCC(=O)N1Cc1cc(Br)no1)[C@H](C)CC [Compound 22, (1S)-1-[(5S)-1-(3-bromo-5-isoxazolylmethyl)-2-oxo-5-pyrrolidinyl]-2-[(2R,2'R)-disec.butylamino]ethanol] | 1 mg/kg | 4.96 nM | IC50 [2]: 9.4 nM
15 | CC[C@@H](C)N(C[C@H](O)[C@@H]1CCC(=O)N1Cc1cccc(C(F)(F)F)c1)[C@H](C)CC [Compound 24, (1S)-1-[(5S)-2-oxo-1-[(3-trifluoromethylphenyl)methyl]-5-pyrrolidinyl]-2-[(2R,2'R)-disec.butylamino]ethanol] | 0.5 mg/kg | 2.9 nM | 
16 | CC[C@@H](C)N(C[C@H](O)[C@@H]1CCC(=O)N1Cc1ccc(Br)cc1)[C@H](C)CC [Compound 26, (1S)-1-[(5S)-1-[(4-bromophenyl)methyl]-2-oxo-5-pyrrolidinyl]-2-[(2R,2'R)-disec.butylamino]ethanol] | 0.03 mg/kg | 0.04 nM | 
17 | CC(C)N(C[C@H](O)[C@@H]1CCC(=O)N1Cc1ccccc1Cl)C(C)C [Compound 34, (1S)-1-[(5S)-1-[(2-chlorophenyl)methyl]-2-oxo-5-pyrrolidinyl]-2-diisopropylaminoethanol] |  | 44.7 nM | 
18 | O=C1CC[C@@H]([C@@H](O)CN(C2CCCC2)C2CCCC2)N1Cc1ccccc1Cl [Compound 36, (1S)-1-[(5S)-1-[(2-chlorophenyl)methyl]-2-oxo-5-pyrrolidinyl]-2-dicyclopentylaminoethanol] | 4.7 mg/kg | 4.06 nM | 
19 | CC[C@@H](C)N(C[C@H](O)[C@@H]1CCC(=O)N1Cc1ccccc1Cl)C(C)C [Compound 38, (1S)-1-[(5S)-1-[(2-chlorophenyl)methyl]-2-oxo-5-pyrrolidinyl]-2-[[(R)-sec.butyl]isopropylamino]ethanol] | 1.1 mg/kg | 21.5 nM | 
20 | CCC(CC)N(C[C@H](O)[C@@H]1CCC(=O)N1Cc1ccccc1Cl)C(CC)CC [Compound 40, (1S)-1-[(5S)-1-[(2-chlorophenyl)methyl]-2-oxo-5-pyrrolidinyl]-2-[bis(1-ethylpropyl)amino]ethanol] |  | 60 nM | 
21 | CC[C@@H](C)N(CC(O)C1CCCC(=O)N1Cc1ccccc1Cl)[C@H](C)CC (stereo partly drawn) [Compound 43, 1-[2-[(2-chlorophenyl)methyl]-2-oxo-6-piperidinyl]-2-[(2R,2'R)-disec.butylamino]ethanol] |  |  | Analgesic activity ED50 (C.L. 95%), s.c. ([3]; subcutaneous, mouse hot plate test): 0.1 mg/kg; IC50 [4]: 0.5 nM
22 | CN1CC[C@]23c4c5ccc(O)c4O[C@H]2[C@@H](O)C=C[C@H]3[C@H]1C5 [morphine, reference compound] |  |  | Percentage of jumping animals (total dose 156.0 mg/kg i.p.) ([1]; total dose 156.0 mg/kg i.p.): 80%; ED50 ([3]; Mus musculus, po, read-out: Analgesic activity ED50 (C.L. 95%), os): 18 mg/kg; ED50 ([3]; Mus musculus, sc, read-out: Analgesic activity ED50 (C.L. 95%), s.c.): 3.5 mg/kg
